# Assay results from PubChem BioAssay AID330 (DTP/NCI, 2004).
# “And” between values parts separate entries of the source, which are not always exact repeats. Identical values can stand only once. Toxic doses and inconclusive results are not listed.
# Tested on: P388 leukemia ip, CD2F1 mice, survival T/C
# Assay: NCI In Vivo Anticancer Drug Screen. Data for tumor model P388 Leukemia (intraperitoneal) in CD2F1 (CDF1) mice
# Conditions: endpoint: median survival time, higher = longer survival
# How it was run: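 Mice carrying the transplanted tumor received test compound or vehicle. Survival was recorded in each group, and the value is the treated-group measurement divided by that of the vehicle-treated control group.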
# [1] = dose: 25.0 mg/kg/injection, schedule: Q01DX005 (ip), vehicle: Klucel (hydroxypropylcellulose) (HPC)
# [2] = dose: 50.0 mg/kg/injection, schedule: Q01DX005 (ip), vehicle: Klucel (hydroxypropylcellulose) (HPC)
# [3] = dose: 100.0 mg/kg/injection, schedule: Q01DX005 (ip), vehicle: Klucel (hydroxypropylcellulose) (HPC)
# [4] = dose: 25.0 mg/kg/injection, schedule: Q01DX005 (ip), vehicle: saline with Tween-80
# [5] = dose: 50.0 mg/kg/injection, schedule: Q01DX005 (ip), vehicle: saline with Tween-80
# [6] = dose: 50.0 mg/kg/injection, schedule: Q01DX009 (ip), vehicle: Klucel (hydroxypropylcellulose) (HPC)
# [7] = dose: 100.0 mg/kg/injection, schedule: Q01DX009 (ip), vehicle: Klucel (hydroxypropylcellulose) (HPC)
# [8] = dose: 100.0 mg/kg/injection, schedule: Q04DX003 (ip), vehicle: Klucel (hydroxypropylcellulose) (HPC)
# [9] = dose: 200.0 mg/kg/injection, schedule: Q04DX003 (ip), vehicle: Klucel (hydroxypropylcellulose) (HPC)
# [10] = dose: 200.0 mg/kg/injection, schedule: Q01DX005 (ip), vehicle: Klucel (hydroxypropylcellulose) (HPC)
smiles,measurement,setting,value
COC(=O)NC12CC3CC(C(C)O1)C2N(Cc1ccccc1)C3 (stereo not given),T/C,[1],100 % of control
same,T/C,[2],93 % of control
same,T/C,[3],94 % of control
CC1(C)NC2Cc3c([nH]c4ccccc34)C3(C)CCC1CC23 (stereo not given),T/C,"dose: 12.5 mg/kg/injection, schedule: Q01DX005 (ip), vehicle: Klucel (hydroxypropylcellulose) (HPC)",94 % of control
same,T/C,[1],94 % of control
same,T/C,[2],89 % of control
same,T/C,[3],108 % of control
CCOC(=O)c1c2n(c3ccccc13)C1(C(=O)OCC)CC1(C(C)=O)C1CN21 (stereo not given),T/C,[4],106 % of control
same,T/C,[5],101 % of control and 108 % of control
same,T/C,"dose: 100.0 mg/kg/injection, schedule: Q01DX005 (ip), vehicle: saline with Tween-80",106 % of control and 120 % of control
same,T/C,"dose: 200.0 mg/kg/injection, schedule: Q01DX005 (ip), vehicle: saline with Tween-80",117 % of control and 119 % of control
O=[N+]([O-])c1cc(Br)cc2c1[nH]c1nc3ccc(C(F)(F)F)cc3nc12,T/C,"dose: 100.0 mg/kg/injection, schedule: Q04DX003 (ip), vehicle: saline",91 % of control
same,T/C,"dose: 200.0 mg/kg/injection, schedule: Q04DX003 (ip), vehicle: saline",95 % of control
same,T/C,"dose: 400.0 mg/kg/injection, schedule: Q04DX003 (ip), vehicle: saline",94 % of control
CSc1cccc(NC(=O)Nc2ccc(S(N)(=O)=O)cc2)c1,T/C,[6],92 % of control
same,T/C,[7],87 % of control
O=P(O)(O)c1ccccc1P(=O)(O)O,T/C,"dose: 60.0 mg/kg/injection, schedule: Q01DX005 (ip), vehicle: saline",105 % of control
same,T/C,"dose: 120.0 mg/kg/injection, schedule: Q01DX005 (ip), vehicle: saline",93 % of control
O=C(Cl)CC1CC(=O)OC1=O (stereo not given),T/C,"dose: 50.0 mg/kg/injection, schedule: Q01DX009 (ip), vehicle: saline with Tween-80",100 % of control
same,T/C,"dose: 100.0 mg/kg/injection, schedule: Q01DX009 (ip), vehicle: saline with Tween-80",95 % of control
C/C=c1/[nH]c(=O)/c(=C\c2ccccc2)[nH]c1=O,T/C,"dose: 25.0 mg/kg/injection, schedule: Q01DX009 (ip), vehicle: Klucel (hydroxypropylcellulose) (HPC)",89 % of control
same,T/C,[6],91 % of control
same,T/C,[7],89 % of control
Cc1c2ccccc2c(C)c2c1cc(F)c1ccccc12,T/C,"dose: 50.0 mg/kg/injection, schedule: Q04DX003 (ip), vehicle: Klucel (hydroxypropylcellulose) (HPC)",105 % of control
same,T/C,[8],105 % of control
same,T/C,[9],113 % of control
same,T/C,"dose: 400.0 mg/kg/injection, schedule: Q04DX003 (ip), vehicle: Klucel (hydroxypropylcellulose) (HPC)",117 % of control
COC(=O)CCCOc1ccc(N(CCCl)CCCl)cc1,T/C,[8],194 % of control
same,T/C,[9],223 % of control
CCN(CC)CCCN(C)Cc1c(-c2ccccc2)oc(-c2ccccc2)c1Cl,T/C,"dose: 6.25 mg/kg/injection, schedule: Q01DX005 (ip), vehicle: saline with Tween-80",106 % of control
same,T/C,"dose: 12.5 mg/kg/injection, schedule: Q01DX005 (ip), vehicle: saline with Tween-80",106 % of control
same,T/C,[4],107 % of control
same,T/C,[5],104 % of control
CC1(c2ccccc2)NN1,T/C,"dose: 100.0 mg/kg/injection, schedule: Q04DX002 (ip), vehicle: saline with Tween-80",94 % of control
same,T/C,"dose: 200.0 mg/kg/injection, schedule: Q04DX002 (ip), vehicle: saline with Tween-80",95 % of control
same,T/C,"dose: 400.0 mg/kg/injection, schedule: Q04DX002 (ip), vehicle: saline with Tween-80",94 % of control
CCCn1c(C)nc2ncn(-c3ccccc3)c2c1=O,T/C,[2],101 % of control
same,T/C,[3],102 % of control
same,T/C,[10],101 % of control
CCOC(=O)c1ccc(NC(=O)Nc2cc(Cl)ncn2)cc1,T/C,[6],100 % of control
same,T/C,[7],99 % of control
same,T/C,"dose: 200.0 mg/kg/injection, schedule: Q01DX009 (ip), vehicle: Klucel (hydroxypropylcellulose) (HPC)",91 % of control
CN(C)c1nnnn1Cc1ccccc1,T/C,[2],97 % of control
same,T/C,[3],97 % of control
same,T/C,[10],106 % of control
